The results in this text go back to paper PMC11470957, “Principles of paralog-specific targeted protein degradation engaging the C-degron E3 KLHDC2” (Nature Communications, 2024).

The structures appear in SMILES notation. “Also recorded” adds a separate entry of the source.

The subject of the test is KLHDC2, KLHDC3, KLHDC10, KLHDC1 E3 ligases.

Regarding `O=C(O)CNC(=O)Cc1csc(-c2ccc3ccccc3c2)n1` [SJ46411], the “selectivity towards KLHDC2 over other KLHDC family members” value (inhibition of SELK ubiquitylation) is given as “at least two orders-of-magnitude”. Further, the “inhibition of substrate ubiquitylation by Kelch family E3 ligases other than KLHDC2” value (ligand alone, Fig S5b, c) is “does not show substantial effects; also recorded: largely inactive”.
